The values that follow come from ChEMBL document CHEMBL3525983, “Pharmacokinetics, metabolism, and disposition of rivoglitazone, a novel peroxisome proliferator-activated receptor γ agonist, in rats and monkeys” (Drug Metab Dispos, 2011).

Series [1] is described as follows: Drug excretion in F344/DuCrlCrlj rat urine/bile treated with [14C]rivoglitazone at 1 mg/kg, po administered via gavage measured during 0 to 48 hrs by radio-HPLC analysis. The settings on record: in vivo. The format is ADME, organism-based. Further details: dose 1 mg/kg, dosed compound name [14C]Rivoglitazone, route oral.
The nature of series [2]: Drug excretion in F344/DuCrlCrlj rat bile treated with [14C]rivoglitazone at 1 mg/kg, po administered via gavage measured during 0 to 48 hrs by radio-HPLC analysis. Details: dose 1 mg/kg, dosed compound name [14C]Rivoglitazone, route oral. The format is ADME, organism-based. Particulars: in vivo.
A short description of series [3]: Drug excretion in F344/DuCrlCrlj rat feces treated with [14C]rivoglitazone at 1 mg/kg, po administered via gavage measured during 0 to 48 hrs by radio-HPLC analysis. Details: dose 1 mg/kg, dosed compound name [14C]Rivoglitazone, route oral. The class given is ADME, organism-based. Particulars: in vivo.
The nature of series [4]: Retention time of the compound by LC-MS/MS analysis. Details: dosed compound name [14C]Rivoglitazone. The format is physicochemical.
Series [5] in a line: Drug excretion in monkey feces treated with [14C]rivoglitazone at 1 mg/kg, po administered via gavage measured during 0 to 72 hrs by radio-HPLC analysis. The format is ADME, organism-based, Macaca mulatta. Details: dose 1 mg/kg, dosed compound name [14C]Rivoglitazone, route oral. The settings on record: rhesus monkey, in vivo.
In the next series the test system is Rhesus monkey. The experiment in a line: Drug level in monkey plasma treated with [14C]rivoglitazone assessed as ratio of molar basis AUC (0 to t) at 1 mg/kg, po administered via gavage by LC-MS/MS analysis. The class given is ADME, organism-based, Macaca mulatta. Details: dose 1 mg/kg, dosed compound name [14C]Rivoglitazone, route oral. The settings on record: in vivo.

Series [6] in a line: Drug excretion in F344/DuCrlCrlj rat urine/feces treated with [14C]rivoglitazone at 1 mg/kg, po administered via gavage measured during 0 to 48 hrs by radio-HPLC analysis. Details: dose 1 mg/kg, dosed compound name [14C]Rivoglitazone, route oral. The class given is ADME, organism-based. Particulars: in vivo.
Series [7] in a line: Drug excretion in monkey urine/feces treated with [14C]rivoglitazone at 1 mg/kg, po administered via gavage measured during 0 to 72 hrs by radio-HPLC analysis. The format is ADME, organism-based, Macaca mulatta. Further details: dose 1 mg/kg, dosed compound name [14C]Rivoglitazone, route oral. The settings on record: rhesus monkey, in vivo.
The test system of the next series is Rattus norvegicus. The experiment in a line: Drug level in F344/DuCrlCrlj rat plasma treated with [14C]rivoglitazone assessed as ratio of molar basis AUC (0 to t) at 1 mg/kg, po administered via gavage by LC-MS/MS analysis. The format is ADME, organism-based. Further details: dose 1 mg/kg, dosed compound name [14C]Rivoglitazone, route oral. The settings on record: in vivo.

Series [8] can be described thus: Drug excretion in monkey urine treated with [14C]rivoglitazone at 1 mg/kg, po administered via gavage measured during 0 to 72 hrs by radio-HPLC analysis. The format is ADME, organism-based, Macaca mulatta. Further details: dose 1 mg/kg, dosed compound name [14C]Rivoglitazone, route oral. Particulars: rhesus monkey, in vivo.
Series [9] can be described thus: Drug excretion in F344/DuCrlCrlj rat urine treated with [14C]rivoglitazone at 1 mg/kg, po administered via gavage measured during 0 to 48 hrs by radio-HPLC analysis. The class given is ADME, organism-based. Details: dose 1 mg/kg, dosed compound name [14C]Rivoglitazone, route oral. Particulars: in vivo.

As for `Cn1c(COc2ccc(CC(C(N)=O)[S+](C)[O-])cc2)nc2ccc(OS(=O)(=O)O)cc21` (configuration not stated), the Compound recovery in [1] is 3.8%; in series [2], 3.8%; in series [3], “metabolite_not_detected”. This compound returned a Retention_time in series [4] of 9.9 min.
With `Cn1c(COc2ccc(CC3SC(=O)NC3=O)cc2)nc2ccc(O)cc21` (configuration not stated), the Compound recovery was 18% in series [5]; “metabolite_not_detected” in series [1]; 25.6% in series [3]; 25.6% in series [6]; 18% in series [7]. Further, the AUCmet/AUCp in the series on Rhesus monkey stood at 1.22%; in the series on Rattus norvegicus it was 0.72%. Further, in series [4], the Retention_time worked out at 19 min.
In the case of `O=C1NC(=O)C(Cc2ccc(OCc3nc4ccc(O)cc4[nH]3)cc2)S1` (configuration not stated), the Compound recovery in [8] and in series [7] was 3.8% throughout. The AUCmet/AUCp in the series on Rhesus monkey turned out to be 0.28%. This compound also came in with a Retention_time in [4] of 17.8 min.
With `COc1ccc2nc(COc3ccc(CC(SC)C(=O)O)cc3)n(C)c2c1` (configuration not stated), the Compound recovery in [5] is 0.8%; in series [1] it was “metabolite_not_detected”; in series [3] it was 3%; in series [6], 3%; in [7], 0.8%. The AUCmet/AUCp with Rhesus monkey is reported as 0.25%; with Rattus norvegicus it was 0.01%. The Retention_time in series [4] amounted to 24.1 min.
In the case of `COc1ccc2nc(COc3ccc(CC(SSCC(N)C(=O)O)C(=O)O)cc3)n(C)c2c1` (configuration not stated), the AUCmet/AUCp with Rhesus monkey is listed as 0.03%. The Retention_time in series [4] worked out at 16.8 min.
Turning to `COc1ccc2nc(COc3ccc(CC(C(N)=O)S(C)(=O)=O)cc3)n(C)c2c1` (configuration not stated), the Compound recovery in series [9] is listed as 1%; in series [1] it was 2%; in series [8], 1.3%; in [2] it was 1%; in [3] it was “metabolite_not_detected”; in series [6] it was 1%. This compound showed a Compound recovery in series [7] of 1.3%. Also, the values for the AUCmet/AUCp in the series on Rhesus monkey and with Rattus norvegicus were 0.08% and 0.02%, respectively. The same compound displayed a Retention_time in series [4] of 18.1 min.
On to `Cn1c(COc2ccc(CC(C(N)=O)S(C)(=O)=O)cc2)nc2ccc(OS(=O)(=O)O)cc21` (configuration not stated), for which the Compound recovery in series [1] is recorded as 1.3%; in series [2], 1.3%; in series [3], “metabolite_not_detected”. Besides, in [4], the Retention_time was 13.8 min.
Turning to `COc1ccc2nc(COc3ccc(CC4SC(=O)NC4=O)cc3)[nH]c2c1` (configuration not stated), the values for the AUCmet/AUCp with Rhesus monkey and with Rattus norvegicus were 7.01% and 0.02%, respectively. In addition, in series [4], the Retention_time was determined as 21.5 min.
For `COc1ccc2nc(COc3ccc(CC4SC(=O)N([C@@H]5O[C@H](C(=O)O)[C@@H](O)[C@H](O)[C@H]5O)C4=O)cc3)n(C)c2c1` (some centres not stated), the Compound recovery was 1% in series [1]; 1.4% in series [8]; 1% in series [2]; “metabolite_not_detected” in series [3]; 1.4% in series [7]. Further, the AUCmet/AUCp in the series with Rhesus monkey worked out at 2.15%. In addition, in series [4], the Retention_time is 19.8 min.
`CSC(Cc1ccc(OCc2nc3ccc(O[C@@H]4O[C@H](C(=O)O)[C@@H](O)[C@H](O)[C@H]4O)cc3n2C)cc1)C(N)=O` (some centres not stated): the Compound recovery was 0.7% in series [9]; 3.5% in series [1]; 1.2% in series [8]; 2.8% in [2]; “metabolite_not_detected” in series [3]; 0.7% in [6]. Further, the Compound recovery in [7] worked out at 1.2%. The Retention_time in series [4] is 12.9 min.
Regarding `COc1ccc2nc(COc3ccc(CC(SC(=O)N[C@@H]4O[C@H](C(=O)O)[C@@H](O)[C@H](O)[C@H]4O)C(=O)O)cc3)n(C)c2c1` (some centres not stated), the Compound recovery in series [5] and in series [7] was 6.6% each time. In addition, the AUCmet/AUCp with Rhesus monkey turned out to be 1.53%. Besides, the Retention_time in [4] was 17.2 min.
As to `Cn1c(COc2ccc(CC3SC(=O)NC3=O)cc2)nc2ccc(O[C@@H]3O[C@H](C(=O)O)[C@@H](O)[C@H](O)[C@H]3O)cc21` (some centres not stated), the Compound recovery in [1] is given as 1.5%; in series [8], 2.6%; in [2] it was 1.5%; in series [3] it was “metabolite_not_detected”; in series [7] it was 2.6%. In series [4], the Retention_time is 15.1 min.
Regarding `COc1ccc2nc(COc3ccc(CC(SC)C(N)=O)cc3)n(C)c2c1` (configuration not stated), the AUCmet/AUCp with Rhesus monkey came to 0.05%; with Rattus norvegicus, 0.01%. In addition, the Retention_time in series [4] is 20.9 min.
`COc1ccc2nc(COc3ccc(CC4(O)SC(=O)NC4=O)cc3)n(C)c2c1` (configuration not stated): the Compound recovery in series [5] was 1.7%; in [8], 0.4%; in series [7] it was 2.1%. Also, the AUCmet/AUCp is 0.02% in the series with Rhesus monkey and 0.03% with Rattus norvegicus. The compound also came in with a Retention_time in series [4] of 21.3 min.
On to `CSC(Cc1ccc(OCc2nc3ccc(O)cc3n2C)cc1)C(N)=O` (configuration not stated), for which the Compound recovery was 2.9% in series [5]; “metabolite_not_detected” in series [1]; 8.7% in series [3]; 8.7% in series [6]; 2.9% in series [7]. For the same compound, the Retention_time in series [4] is 16.9 min.
For the compound `Cn1c(COc2ccc(CC(SC(=O)N[C@@H]3O[C@H](C(=O)O)[C@@H](O)[C@H](O)[C@H]3O)C(=O)O)cc2)nc2ccc(O)cc21` (some centres not stated), the Retention_time in series [4] was found to be 13.9 min.
`COc1ccc2nc(COc3ccc(CC(C(N)=O)[S+](C)[O-])cc3)n(C)c2c1` (configuration not stated): the Compound recovery in series [9] is given as 3.9%; in series [1] it was 4.5%; in series [2], 0.6%; in series [3] it was “metabolite_not_detected”; in [6], 3.9%. Further, the AUCmet/AUCp is given as 0.11% with Rhesus monkey and 0.08% in the series with Rattus norvegicus. Also, in series [4], the Retention_time worked out at 16.1 min.
